In ChEMBL document CHEMBL1142831, “Identification of a potent non-hydroxamate histone deacetylase inhibitor by mechanism-based drug design” (Bioorg Med Chem Lett, 2005) one finds IC50 and inhibition data, which are given here for 9 compounds.

A word on the IC50: it is the point on the concentration scale where inhibition reaches its midpoint. Lower therefore signals greater potency in that assay. Broadly, the inhibition is the drop in the measured response relative to a control, in per cent. A lower inhibition goes with little suppression.

Experiment [1] concerns the target Histone deacetylase. As to the kind of experiment: Inhibitory concentration against histone deacetylase of HeLa cells. It counts as cell-based, Homo sapiens.
Experiment [2] deals with Histone deacetylase (Homo sapiens) (UniProt Q13547+O15379+Q9UBN7+Q92769+Q9UQL6+Q8WUI4+Q9BY41+Q96DB2+P56524+Q9UKV0+Q969S8). The conditions noted are these: HeLa, at 100 µM.
Description: Percentage inhibition against histone deacetylase of HeLa cells at 100 uM

Molecules are shown by their SMILES. Some results are limits rather than exact numbers.

As to `CC(=O)SCC(=O)NCCCCCC(=O)Nc1ccccc1`, the IC50 in experiment [1] stood at 22 µM. In experiment [2], the inhibition is 72%. On to `O=C(CCS)NCCCCCC(=O)Nc1ccccc1`, for which the IC50 in experiment [1] is 24 µM. The compound also had an inhibition in experiment [2] of 78%. Consider `NCC(=O)NCCCCCC(=O)Nc1ccccc1`, for which the IC50 in experiment [1] is > 100 µM. As for `CS(=O)(=O)CCCCCCC(=O)Nc1ccccc1`, the IC50 in experiment [1] came to 230 µM. For the same compound, the inhibition in experiment [2] worked out at 33%. `O=C(CO)NCCCCCC(=O)Nc1ccccc1`: the half-inhibitory concentration (IC50) in experiment [1] is > 100 µM. For the compound `O=C(CS)NCCCCC(=O)Nc1ccccc1`, in experiment [1], the IC50 is 11 µM. The same compound returned an inhibition in experiment [2] of 88%. Regarding `O=C(CS)NCCCCCCC(=O)Nc1ccccc1`, the half-inhibitory concentration (IC50) in experiment [1] was 3 µM. The compound also registered an inhibition in experiment [2] of 96%. In experiment [1], `CS(=O)(=O)NCCCCCC(=O)Nc1ccccc1` yielded an IC50 of 7500 µM. This compound also came in with an inhibition in experiment [2] of 10%. As for `O=C(CS)NCCCCCC(=O)Nc1ccccc1`, the inhibition in experiment [2] worked out at 99%.
